From PMC5384453, “A multi-functional PEGylated gold(III) compound: potent anti-cancer properties and self-assembly into nanostructures for drug co-delivery” (Chemical Science, 2016)

Assays:
HCT116 cells = test: Co-culture model of HCT116 and NCM460, FITC-Annexin V flow cytometry; assay type: cell-based, human; conditions: HCT116 in co-culture with CMF2HC-stained NCM460, 2 μM, 24 h
Experimental: (§1) To further verify the ability of 1 to selectively induce apoptosis of HCT116 cells over NCM460 cells, HCT116 and NCM460 cells were co-cultured and incubated with 1 for 24 h, and then stained with FITC-Annexin V and propidium iodide. In order to differentiate the two different cell lines, NCM460 cells were pre-treated with blue-emissive CMF2HC dye prior to its co-culture with HCT116 cells. […] In a parallel experiment, co-cultured cells treated with 1 for 24 h and stained with FITC-Annexin V and propidium iodide were imaged by fluorescence microscopy (Fig. 4a). Green and red fluorescence were primarily observed in cells without showing blue luminescence, i.e. HCT116 cells. […] The results of both the fluorescence microscopy and flow cytometry support the high selectivity of 1 on killing colon cancer cells in the co-culture model of cancer and normal cells.
(§2) atmosphere of 5% CO2. After reaching 80% confluency, the culture medium was
(§3) of 5% CO2 for 45 min. The solution was then removed. The stained NCM460 cells
(§4) the procedure described above.
(§5) right fore of BALB/c nude mice. When the tumor volume reached 70 mm3 after […]

NCM460 cells [1] = test: as above; assay type: cell-based, human; conditions: CMF2HC-stained NCM460 in co-culture with HCT116, 2 μM, 24 h
Experimental: as §1, §2, §3, §4, §5

human cancer cell lines = test: In vitro cytotoxicity toward cancer cells compared to cisplatin (MTT); assay type: cell-based; conditions: MTT 72 h
Experimental: The in vitro cytotoxicity of 1–3 and Au1a to human cancer cell lines (HeLa, NCI-H460, HCT116, A2780) and the cisplatin- and doxorubicin-resistant cancer cell lines (A2780cis and A2780adr), as well as normal human colon mucosal epithelial cell line (NCM460), non-tumorigenic immortalized liver cells (MIHA) and normal lung fibroblast cells (CCD-19Lu), was evaluated using a 3-(4,5-dimethyl-2-thiazolyl)-2,5-diphenyltetrazolium bromide (MTT) assay (Table 1; Fig. S5a ^†). […] The low toxicity of 1 was also found in experiments with non-tumorigenic liver L02 and gliocyte CHEM-5 cells (Table S5 ^†). […]
The gold content of the nanocomposites was determined by dissolving the nanocomposites in conc. […]
The content of DOX in the nanocomposites was measured as follows. […] The solution was then diluted and filtered, and the content of DOX in the nanocomposite was determined by UPLC with photodiode array detector using daunorubicin hydrochloride (3.6 µM) as the internal standard. […]
hydrochloride standard over the peak area of daunorubicin hydrochloride (3.6 µM) in the UPLC chromatograms of the doxorubicin hydrochloride standard spiked with daunorubicin hydrochloride (3.6 µM). The encapsulation efficiency of DOX by nanostructures of 1 was calculated by the equation: […]
which reflected the amount of blue formazan formed. IC50 values were then determined by CompuSyn S6 from three independent measurements. […]

NCM460 cells [2] = test: Flow cytometric analysis of apoptosis with propidium iodide co-staining (Fig. S14, S15); conditions: NCM460, 2 μM
Experimental: Analysis of induction of apoptosis in HCT116 and NCM460 cells after incubation
with gold(III) complexes and FITC-annexin V staining by flow cytometry.
dishes respectively. The cells were incubated at 37 °C under an atmosphere of 5%
CO2 for 48 h. The culture medium was then removed, washed with PBS solution. The
cells were then incubated with culture medium containing nanostructures of 1 (2 µM)
or Au1a (2 µM; with 1 vol% DMSO) at 37 °C under an atmosphere of 5% CO2 for 24
h. All the cells were harvested, and washed with PBS solution and annexin-binding
buffer solution. The cells were collected by centrifugation at 2000 rpm for 5 min, and
re-dispersed in annexin-binding buffer solution with cell concentration of ca. 110 6
cells/mL. FITC- Annexin V (5 µL) was added to an aliquot of the cell suspension
(100 µL), and the cells were incubated at room temperature in dark for 15 min. The
solution mixture was then diluted by annexin-binding buffer solution (400 µL), kept
in ice and analyzed by flow cytometry immediately.
with gold(III) complexes by CellEvent Caspase-3/7 Green Detection Reagent
staining and flow cytometry. The procedure is similar to that using FITC-Annexin V
staining, except that the harvested cells were re-dispersed in PBS solution with 2%
BSA (w/w; 100 µL) and incubated with CellEvent Caspase-3/7 Green Detection
Reagent (2.5 µM) at 37 °C for 30 min, and subsequently stained with propidium […]

| Molecule | cells undergoing apoptosis (FITC-Annexin V, corrected) (HCT116 cells) [%] | cells undergoing apoptosis (FITC-Annexin V, corrected) (NCM460 cells [1]) [%] | times more cytotoxic than cisplatin (human cancer cell lines) | viability (Q3 region, corrected) (NCM460 cells [2]; 24 h) [%] | viability (Q3 region, corrected) (NCM460 cells [2]; 36 h) [%] |
| --- | --- | --- | --- | --- | --- |
| [Au(TPP–COO–PEG5000–OCH3)]Cl [Compound 1] | 20.6 | 1.87 | 5.1–76.9 times |  |  |
| C1=Cc2nc1c(-c1ccccc1)c1ccc([n-]1)c(-c1ccccc1)c1nc(c(-c3ccccc3)c3ccc([n-]3)c2-c2ccccc2)C=C1.[Au+3].[Cl-] [Au1a, [Au(TPP)]Cl, reference compound] |  |  |  | 61.14 | 56.64 |
